# Source: patent US20040077080A1, “Compositions and methods for induction of proteins involved in xenobiotic metabolism” (priority 2000, published 2004)
# “Also recorded” adds a separate entry of the source.
# B1: CYP2C19 F4 fragment (dsDNA)
# DNA 1: AACCAAACTCTTCTGACCCCCAATCT
# DNA 2: AGATTGGGGGTCAGAAGAGTTTGGTT
# Assays:
# CYP3A4 mRNA [1] = conditions: human, hepatocytes
# Protocol: FIG. 13 depicts the effect of various CYP3A4 inducers on CYP3A4 expression in human hepatocytes. […] Total RNA (ten micrograms) was subjected to northern blot analysis and developed with a specific cDNA probe to CYP3A4 as described in the Examples.
# Human hepatocytes were treated with various CYP3A4 inducers for forty eight hours, harvested, and RNA and cell homogenates isolated.
# CYP3A4 mRNA [2] = conditions: human, hepatocytes; remark: listed apart in the source
# Protocol: FIG. 28B: Human primary hepatocytes were exposed for 48 hours to commercial health supplements including grapeseed, garlic, kava-kava, and ginseng.
# Total RNA was prepared from the treated cells, subjected to electrophoresis on a 1% formaldehyde gel, and transferred onto a nylon membrane.
# CYP2C19 (hCAR) = assay: CYP2C19 induction in HepG2 cell lines stably transfected with hCAR
# CYP1A1 mRNA [3] = assay: Northern blot of CYP1A1 in primary human hepatocytes (Example V); conditions: primary hepatocytes, 24 hours; TCDD 10 nanomoles per liter, 3-MC 0.5 nanomoles per liter, omeprazole 100, chrysin 25, curcumin 50, resveratrol 25, DMBA 20, 2-AAF 100 micromoles per liter
# Excerpt: The isolated RNA was subjected to Northern blot analysis.
# [4] = system: PXR / CYP3A4 response elements; assay: DPX2 (Hepg-hPXR/3A4-Luc) luciferase assay; conditions: DPX2 cells, kava-kava 100 micrograms per milliliter, chrysin 25 micromoles per liter
# Protocol: Compounds tested included known PXR ligands and conventional drugs (FIG. 30A), environmental contaminants (FIG. 30B), and herbal supplements (FIG. 30C). DPX2 cells were cultured with DMEM supplemented with 10% fetal bovine serum and neomycin. Cells were inoculated into 96-well plate at a density of 1×10^4 cells per well the day before treatment.
# 2. […] In addition, a distal enhancer module, XREM, was amplified by PCR using the sense primer
# The resulting amplified XREM fragment was ligated upstream of PXRE containing a 3A4 promoter, into a luciferase vector.
# A neomycin resistance gene was generated by PCR amplification using the pcDNA3.1 plasmid (Invitrogen, Carlsbad, Calif.), which encodes a neomycin resistant gene, as a DNA template. The sense primer had the sequence […] Amplification was followed by SalI digestion of the PCR product, and the resulting fragment ligated to the SalI-digested PGL3-promoter plasmid, which contains luciferase as a reporter gene. […] The CYP3A4 cell line DPX2 (Hepg-hPXR/3A4-Luc) was established by double transfection with the PXR expression plasmid and the luciferase plasmid containing CYP3A4 PXR response element under selection with both neomycin and hygromycin.
# [5] = system: PXR / mdr1(dr4) response element; assay: Hep-PXR/Pgp-Luc stable cell luciferase assay
# Protocol: (§1) FIG. 35 depicts dose-response behavior to various PXR activators in stable cell lines overexpressing PXR and harboring DR4 response element. FIG. 35A: Results are shown for the stable cell line Hep-PXR/PgpLuc. FIG. 35B: Results are shown for the stable cell line Caco-PXR/PgpLuc.
# (§2) Cells were exposed to the test compounds for 48 hours at the concentrations indicated.
# FIG. 36 depicts the effect of environmental and botanical chemicals on luciferase activity in the stable cell line Hep-PXR/PgpLuc. Cells were inoculated into 96-well plates at a density of 2×10^4 cells per well. After overnight recovery, cells were treated with the test compounds at the concentrations indicated for 48 hours.
# (§3) Establishment of stable transformants containing both PXR and reporter plasmid and development of high throughput bioassay for PXR-dependent transactivation: The stable transformants Hep-PXR/mdr1(dr4)-Luc and Caco-PXR/mdr1(dr4)-Luc cell lines were generated from the parental cell lines HepG-PXR and Caco-PXR, respectively, according to the following procedure. The parental cell lines HepG-PXR and Caco-PXR, which overexpress PXR, were stably transfected with the luciferase reporter plasmid mdr1(dr4)-Luc. The transfected cells were cultured in DMEM (HepG-PXR cells) or in IMEM (Caco-PXR cells), both media supplemented with 10% fetal bovine serum and neomycin (700 micrograms per milliliter).
# (§4) For the induction assay, stable transformants were seeded in 96-wells plates at a density of 1×10^4 cells per well and allowed to recover overnight. Plates were treated with test compounds at varying concentrations, using 3 replicates per dose. After 48 hours of exposure to the test compound, cells were washed with phosphate buffered saline, lysis buffer was applied to the wells, and luciferase substrate added. Following 10 minutes for light adaptation, luminescence was monitored according to the manufacturer's instructions (Packard kit, Biomed).
# [6] = system: AhR (dioxin response elements); assay: DRE12-6 luciferase assay (HepG2 with dioxin response elements); conditions: DRE12-6 cells, 28 hours
# Protocol: (§6) FIG. 25A: DRE12-6 cells were treated for 28 hours with the indicated concentrations of phytochemicals. FIG. 25B: DRE12-6 cells were treated with the indicated chemicals for 3 hours prior to co-treatment with 2,3,7,8-tetrachlorodibenzo-p-dioxin (TCDD) for 28 hours.
# (§7) Chemical treatment was followed by cell lysis and luciferase measurement.
# (§8) FIG. 26A: DRE12-6 cells were inoculated into a 96-well plate (2×10^4 cells per well) a day prior to treatment and treated for 28 hours with the indicated concentrations of the environmental contaminants (PAHs, PAH derivatives, PCBs, or pesticide derivatives). FIG. 26B: DRE12-6 cells were treated with the indicated chemicals for 3 hours prior to co-treatment with 2,3,7,8-tetrachlorodibenzo-p-dioxin (TCDD) for 28 hours.
# (§9) The luciferase-SV40 promoter vector, with the three copies of the dioxin response elements, was transfected into HepG2 cells, which were put under neomycin selection to yield the stable cell line DRE12-6, for detection of AhR-dependent transactivation.
# (§10) Luciferase assay: Luciferase assays using the LucLite system (Packard Instrument Co., Meriden, Conn.) were performed according to the manufacturer's instructions. Results were expressed as relative light units or fold induction, relative to DMSO-treated control cells. The data represent the mean±standard deviation of experiments performed in duplicate.
# [7] = system: human CYP1A1 promoter (Ah receptor); assay: 101L cell luciferase assay (HepG2 with human CYP1A1 promoter-luciferase), 96-well; conditions: 101L cells; for fold increase in luciferase activity, dose response of known CYP1A1 inducers: benzanthracene and omeprazole maximum at 100 micromolar, TCDD at 2 nanomolar
# Protocol: Cells were initially seeded in flasks containing media without G418. After an overnight incubation the cultures were changed into media containing G418 for antibiotic selection. After three to five days, cells were removed from flasks by trypsinization and replated on either a twenty-four-well plate at a density of 3.5×10^5 cells per well, or a ninety-six-well plate at a density of 7.5×10^4 cells per well, in DMEM media that was replaced with that containing 0.1% FBS and without G418 or indicator (phenol red). The next day, media containing 0.1% FBS and G418 was added to the cultures. […] For the antagonist experiments, cells were co-treated with a flavonoid and two nanomolar TCDD. All inducers were dissolved in DMSO and this reagent was added to control cells at 0.1%. The cells were treated with varous doses and times (six to eighteen hours). After treatment, the media containing the compound was removed by aspiration and replaced with one-hundred microliters per well of DMEM for direct analysis of luciferase activity. Experiments were performed on 101L cells from frozen stocks on the initial derivation and the passage number was limited to thirty.
# Luciferase assays were performed as specified by the manufacturer (LucLite system, Packard Instrument, Meriden, Conn.). Activity was determined using a Packard LumiCount luminometer and results expressed as relative light units or fold increase above control (DMSO treated cells.
# CYP1A1 mRNA [8] = assay: Northern blot of CYP1A1 mRNA in HepG2 cells; conditions: HepG2 cells; mean of two determinations
# Protocol: HepG2 cells were obtained from American Type Culture Collection (ATCC). Cells were grown in DMEM (Gibco/BRL). Twenty-four hours after cells were plated and grown to confluency, they were treated with one of the bioflavonoids, TCDD, or beta-naphthoflavone (Sigma). All inducers were dissolved in DMSO and this solvent was added to control cells at 0.1%.
# (§5) Total RNA from hepatocytes or HepG2 cells was isolated using Trizol™ reagent (Gibco BRL Products, Gaithersburg, Md.) and quantified by measuring absorbance at 260 nm; purity was assessed by determining the 260/280 nm ratio. […] A cDNA probe for human 18S RNA probe (Ambion, Austin Tex.) was used to normalize the amount of RNA loaded in each lane. […] Autoradiographs of Northern blots were quantified by densitometry using a Model GS-670 Imaging Densitometer equipped with Molecular Analysis/Mac version 1.1.1. Image Analysis software (BioRad laboratories, Hercules, Calif.) or by scaning autoradiograms with a ScanMaker II (Microtek) and digitized with Un-Scan-It software (Silk Scientific, Orem Utah). Exposure times used were in the linear range of the film, Kodak XAR-5.
# CYP1A1 mRNA [9] = assay: Northern blot of CYP1A1 mRNA in primary cultures of human hepatocytes (Example II); conditions: primary human hepatocytes
# Protocol: Six well plates containing human hepatocytes were obtained from the Liver Tissue Procurement and Distribution System (LTPADS, University of Minnesota, Minneapolis, Minn.). […] All inducers were dissolved in DMSO and added to media at a 0.1% final concentration of this reagent. After treatment, media was removed and cells harvested for RNA isolation.
# as §5
# hPXR / CYP3A4 enhancer = conditions: colony 1F; 72 hours; omeprazole 100 micromolar, PCN 50 micromolar, TCDD 1 micromolar
# Excerpt: (§11) HepG2 cells were harvested at approximately 50% confluency and seeded in six well dishes at 5×10^5 cells per well in DMEM containing 10% fetal bovine serum (FBS). […] The control cells were those that received plasmid DNA containing pGL3 promoter and pIRES(neo) or pGL3promoter and hPXR in pIRES(neo). After sixteen hours of exposure to the precipitated DNA, the culture medium was removed, cells washed twice with DMEM, and fresh media containing 10% FBS added. After an additional twenty four hours, media was replaced with that containing 400 micrograms per milliliter of G418. Media was changed every two days for three weeks until small colonies were visible. Single colonies were selected and transferred to twenty four well Costar plates (VWR, Westchester, Pa.). Each of the twenty four wells contained the same media and cells were grown to confluency with media changes every three days. Confluent wells were trypsinized and cells transferred into six well plates and upon reaching confluency therein, cells were further transferred to T75 flasks.
# (§12) Luciferase assays were performed as specified by the manufacture (LucLite system, Packard Instrument, Meriden, Conn.). Activity was determined using the Packard LumniCount luminometer and results expressed as relative light units or fold increase above control (DMSO treated cells).
# (§13) Cells were seeded in T75 flasks and grown to confluency. […]
# CYP3A4 enhancer (PXRE) = assay: Luciferase reporter assay, HepG2 cells stably transformed with CYP3A4 enhancer (colony 13); conditions: 72 hours, omeprazole 100, clotrimazole 10, RU486 10, PCN 50, TCDD 1 micromolar
# Excerpt: as §11, §12, §13
# [10] = system: AhR (dioxin response elements); assay: in vitro; conditions: human, fold induction of luciferase activity above DMSO, DRE12-6 cells, 28 hours; TCDD 10 nanomoles per liter, omeprazole 25, 2-AAF 100, DMBA 20 micromoles per liter
# Protocol: as §6, §7, §8, §9, §10
# [11] = system: PXR / mdr1(dr4) response element; assay: Caco-PXR/Pgp-Luc stable cell luciferase assay
# Protocol: as §1, §2, §3, §4
# CYP3A4 mRNA (PXR) = assay: Northern blot of CYP3A4 in stable cells overexpressing PXR (Hepg-PXR); conditions: stable cells that overexpress PXR
# Protocol: FIG. 29 depicts CYP3A4 gene regulation in response to PXR ligands by the stably transfected cell line Hepg-PXR (HepG2 cells overexpressing PXR). Total RNA was prepared from Hepg-PXR cells chemically treated as indicated. The RNA blot was hybridized with ^32P-labeled cDNA for CYP3A4 (upper panel).
# Northern blot analysis. Total RNA from primary human hepatocytes and from a PXR stable cell line was isolated using Trizol reagent (Invitrogen, Carlsbad, Calif.) and quantified by spectrophotometric analysis at 260 nanometers. […] The blot was subsequently washed and re-hybridized to an 18S rRNA probe to verify that equal amounts of total RNA had been applied to each lane.
# [12] = system: T1, CAR (hCAR) (Homo sapiens), Q14994-2; assay: cell_activity; conditions: Caco-2 luciferase, fold above no receptor
# T1 sequence: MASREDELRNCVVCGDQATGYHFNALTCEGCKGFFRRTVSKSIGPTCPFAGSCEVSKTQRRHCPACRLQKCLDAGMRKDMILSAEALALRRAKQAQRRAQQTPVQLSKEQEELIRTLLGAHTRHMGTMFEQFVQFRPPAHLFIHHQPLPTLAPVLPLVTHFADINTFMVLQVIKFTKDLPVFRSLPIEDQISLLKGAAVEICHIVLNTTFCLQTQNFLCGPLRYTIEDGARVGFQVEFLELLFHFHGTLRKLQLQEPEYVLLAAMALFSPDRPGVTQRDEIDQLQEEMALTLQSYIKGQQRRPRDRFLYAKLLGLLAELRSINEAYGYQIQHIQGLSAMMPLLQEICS
# [13] = target: CAR/RXR heterodimer (hCAR/hRXRa) (Homo sapiens, UniProt Q14994-2;P19793 Q14994-2:1-348,P19793:1-462); assay: EMSA; conditions: tags: TNT coupled transcription/translation (Promega); label: 32P
# CAR/RXR heterodimer (hCAR/hRXRa), sequence (P19793 whole entry, one chain of several): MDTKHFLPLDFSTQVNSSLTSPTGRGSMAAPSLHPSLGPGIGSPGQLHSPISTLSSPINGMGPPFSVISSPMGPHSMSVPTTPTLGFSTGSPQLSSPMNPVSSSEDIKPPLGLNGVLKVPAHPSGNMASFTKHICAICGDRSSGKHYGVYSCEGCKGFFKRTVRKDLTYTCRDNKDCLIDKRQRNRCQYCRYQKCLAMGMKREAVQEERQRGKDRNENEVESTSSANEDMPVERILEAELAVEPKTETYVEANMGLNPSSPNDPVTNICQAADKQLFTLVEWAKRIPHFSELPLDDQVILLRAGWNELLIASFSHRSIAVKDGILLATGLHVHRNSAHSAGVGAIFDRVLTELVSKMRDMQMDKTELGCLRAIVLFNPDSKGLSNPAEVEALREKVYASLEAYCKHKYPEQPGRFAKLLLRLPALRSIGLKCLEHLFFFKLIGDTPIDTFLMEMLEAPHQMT
# [14] = TCDD 10 nanomoles per liter, omeprazole 25, 2-AAF 100, DMBA 20 micromoles per liter
molecule,measurement,setting,value
CCC1(c2ccccc2)C(=O)NC(=O)NC1=O [phenobarbital],fold increase in CYP3A4 mRNA,CYP3A4 mRNA [1],3.8 fold
same,CYP3A4 mRNA by Northern blot (in words),CYP3A4 mRNA [2],increased CYP3A4 gene expression
same,induction of HepG2 CYP2C19 (in words),CYP2C19 (hCAR),induce HepG2 CYP2C19
"Clc1ccc(-c2nc3sccn3c2C=NOCc2ccc(Cl)c(Cl)c2)cc1 [CITCO, 6-(4-chlorophenyl)imidazo[2,1-b][1,3]thiazole-5-carbaldehyde-O-(3,4-dichlorbenzyl)oxime]",induction of HepG2 CYP2C19 (in words),CYP2C19 (hCAR),induce HepG2 CYP2C19
"CC(=O)Nc1ccc2c(c1)Cc1ccccc1-2 [2-AAF, 2-acetylaminofluorene]",CYP1A1 induction by Northern blot (in words),CYP1A1 mRNA [3],increased CYP1A1 expression slightly
same,fold induction of luciferase activity above DMSO,[4]; 48 hours,24.7 fold
same,fold induction at 48 h,"[4]; human, fold induction of luciferase activity above DMSO",24.8
same,strength of luciferase induction (in words),"[5]; Hep-PXR/PgpLuc cells, 48 hours, omeprazole 100 micromoles per liter versus rifampicin 10 micromoles per liter",strongly induced
same,fold induction of luciferase activity above DMSO,[6]; [14],10.21±0.36 fold
same,fold induction of luciferase activity above DMSO,"[6]; TCDD 10 nanomoles per liter, omeprazole 25, 2-AAF 100, DMBA 20 micromoles per liter, listed as 2-acetylaminofluorene",4.8 fold
Clc1cc2c(cc1Cl)Oc1cc(Cl)c(Cl)cc1O2 [TCDD],"fold increase in luciferase activity, dose response of known CYP1A1 inducers",[7],twelve to thirty-five; also recorded: twenty-two
same,"HepG2 CYP1A1 mRNA (%), normalized to TCDD induction",CYP1A1 mRNA [8],100%
same,"CYP1A1 mRNA level Subject A (%), normalized to TCDD induction",CYP1A1 mRNA [9]; 24 hours,100%
same,"CYP1A1 mRNA level Subject B (%), normalized to TCDD induction",CYP1A1 mRNA [9]; 24 hours,100%
same,"CYP1A1 mRNA level Subject D (%), normalized to TCDD induction",CYP1A1 mRNA [9]; 24 hours,100%
same,CYP1A1 induction by Northern blot (in words),CYP1A1 mRNA [3],maximum induction
same,"fold increase in luciferase activity above DMSO, single concentrations (FIG. 14)",hPXR / CYP3A4 enhancer,less than two
same,AhR-mediated luciferase induction (in words),[6],dose-dependent increase
same,fold induction of luciferase activity above DMSO,[6]; [14],12.99±0.64 fold
same,fold induction at 28 h,"[6]; human, fold induction of luciferase activity above DMSO, TCDD 10 nanomoles per liter, omeprazole 25, 2-AAF 100, DMBA 20 micromoles per liter",20
same,"fold increase in luciferase activity above DMSO, single concentrations (FIG. 15)",CYP3A4 enhancer (PXRE),less than one
c1ccc2cc3c(ccc4ccccc43)cc2c1 [benzanthracene],maximum CYP1A1 mediated luciferase activity,"[7]; 96-well plate format, 50 micromolar benzanthracene",33 fold
same,"fold increase in luciferase activity, dose response of known CYP1A1 inducers",[7],twelve to thirty-five
same,"CYP1A1 mRNA level Subject A (%), normalized to TCDD induction",CYP1A1 mRNA [9]; 24 hours,50%
same,"CYP1A1 mRNA level Subject B (%), normalized to TCDD induction",CYP1A1 mRNA [9]; 24 hours,50%
same,"CYP1A1 mRNA level Subject C (%), normalized to benzanthracene induction","CYP1A1 mRNA [9]; Subject C, 24 hours",100%
same,"CYP1A1 mRNA level Subject D (%), normalized to TCDD induction",CYP1A1 mRNA [9]; 24 hours,52%
same,"CYP1A1 mRNA, % of that observed with TCDD, all subjects",CYP1A1 mRNA [9]; 100 micromolar benzanthracene,50%
same,fold induction,[10],28.7 ± 1.65
CC[C@H](C)C(=O)O[C@H]1CCC=C2C=C[C@H](C)[C@H](CC[C@@H]3C[C@@H](O)CC(=O)O3)[C@H]21 [mevastatin],dose dependence of luciferase induction (in words),[5],dose-dependent luciferase induction
same,dose dependence of luciferase induction (in words),[11],dose-dependent luciferase induction
same,strength of luciferase induction (in words),[11],strongly induce
same,CYP3A4 induction by Northern blot (in words),CYP3A4 mRNA (PXR),efficiently activated
CYP2B6 PBREM reporter,activity,[12],6.16 fold
B1,binding result,[13],binds
